This passage reports IC50 results from patent publication US11638707B2, “Substituted amino triazoles useful as chitinase inhibitors” (Molecure S.A., priority 2019, dated 2023).

One may read the IC50 as the concentration that gives 50% inhibition.

One series addresses recombinant human CHIT1 (Homo sapiens (Human), UniProt Q13231). Nature of the series: Human CHIT1 activity assay. It is filed as biochemical. Particulars: recombinant human CHIT1, citrate buffer pH 5.2, 37° C., 60 minutes; read-out: hCHIT1, IC50. The gist of the method:
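Recombinant human CHIT1 hydrolysed 4-methylumbelliferyl β-D-N,N′,N″-triacetylchitotriose in citrate buffer, pH 5.2, for 60 minutes at 37° C in the dark with shaking. Released 4MU was read by fluorescence at 460 nm under basic pH; IC50 values were calculated from dilution series.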

In a further series the target is hERG channel (Homo sapiens (Human), UniProt Q12809). Nature of the series: Human ERG channel binding assay (fluorescence polarization). The following applies: Table 1; tracer displacement, 4 h at room temperature. The gist of the method: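 Serially diluted compounds were incubated with a hERG-containing membrane fraction and a high-affinity red-shifted fluorescent hERG ligand. Displacement of the tracer was read by fluorescence polarization, and IC50 values were derived from the concentration-response curves.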
Sequence of hERG channel (Q12809 whole entry): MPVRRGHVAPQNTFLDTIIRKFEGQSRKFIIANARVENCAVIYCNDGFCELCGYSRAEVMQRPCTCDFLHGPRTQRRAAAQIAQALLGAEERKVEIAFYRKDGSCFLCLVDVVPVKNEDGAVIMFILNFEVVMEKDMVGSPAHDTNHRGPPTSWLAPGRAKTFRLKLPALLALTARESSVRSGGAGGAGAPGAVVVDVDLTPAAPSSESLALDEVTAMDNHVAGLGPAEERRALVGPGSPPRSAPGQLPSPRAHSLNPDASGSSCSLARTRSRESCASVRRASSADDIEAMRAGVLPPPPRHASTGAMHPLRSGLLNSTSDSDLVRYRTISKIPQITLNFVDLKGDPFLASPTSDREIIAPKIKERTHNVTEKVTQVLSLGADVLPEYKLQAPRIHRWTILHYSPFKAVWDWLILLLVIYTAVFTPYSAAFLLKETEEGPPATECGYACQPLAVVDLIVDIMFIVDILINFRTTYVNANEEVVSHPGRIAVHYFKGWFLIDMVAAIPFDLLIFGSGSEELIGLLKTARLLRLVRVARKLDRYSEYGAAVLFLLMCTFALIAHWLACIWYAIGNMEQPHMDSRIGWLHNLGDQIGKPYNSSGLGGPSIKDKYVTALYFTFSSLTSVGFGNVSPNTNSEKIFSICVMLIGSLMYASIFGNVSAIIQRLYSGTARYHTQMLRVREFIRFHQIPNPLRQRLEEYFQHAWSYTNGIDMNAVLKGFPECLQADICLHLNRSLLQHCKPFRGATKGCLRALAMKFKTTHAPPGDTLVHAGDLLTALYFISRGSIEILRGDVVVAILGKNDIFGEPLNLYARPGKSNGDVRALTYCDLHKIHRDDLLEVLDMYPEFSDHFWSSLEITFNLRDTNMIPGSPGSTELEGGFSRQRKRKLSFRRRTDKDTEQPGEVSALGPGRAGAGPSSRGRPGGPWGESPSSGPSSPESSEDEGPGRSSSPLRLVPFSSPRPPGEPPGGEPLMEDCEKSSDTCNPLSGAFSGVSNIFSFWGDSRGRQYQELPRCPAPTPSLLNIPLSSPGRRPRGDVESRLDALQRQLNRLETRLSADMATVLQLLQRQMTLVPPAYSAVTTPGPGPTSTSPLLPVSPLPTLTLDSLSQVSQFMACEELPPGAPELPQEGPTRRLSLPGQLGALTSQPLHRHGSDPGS

The target in a further series is recombinant human AMCase (Homo sapiens (Human), UniProt Q9BZP6). Nature of the series: Human AMCase activity assay. It counts as biochemical. Particulars: citrate buffer pH 5.2, 37° C., 60 minutes, read-out: hAMCase, IC50. A digest of the protocol:
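Recombinant hAMCase hydrolysed 4-methylumbelliferyl β-D-N,N′-diacetylchitobioside in citrate buffer pH 5.2, run 60 min at 37 °C in the dark with shaking. Released 4MU fluorescence was read at 460 nm under basic pH, and IC50 values were fitted from the compound dilutions.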

Where only a bound is given, the exact number is not on record here.

Sequence of recombinant human AMCase (Q9BZP6 22-476): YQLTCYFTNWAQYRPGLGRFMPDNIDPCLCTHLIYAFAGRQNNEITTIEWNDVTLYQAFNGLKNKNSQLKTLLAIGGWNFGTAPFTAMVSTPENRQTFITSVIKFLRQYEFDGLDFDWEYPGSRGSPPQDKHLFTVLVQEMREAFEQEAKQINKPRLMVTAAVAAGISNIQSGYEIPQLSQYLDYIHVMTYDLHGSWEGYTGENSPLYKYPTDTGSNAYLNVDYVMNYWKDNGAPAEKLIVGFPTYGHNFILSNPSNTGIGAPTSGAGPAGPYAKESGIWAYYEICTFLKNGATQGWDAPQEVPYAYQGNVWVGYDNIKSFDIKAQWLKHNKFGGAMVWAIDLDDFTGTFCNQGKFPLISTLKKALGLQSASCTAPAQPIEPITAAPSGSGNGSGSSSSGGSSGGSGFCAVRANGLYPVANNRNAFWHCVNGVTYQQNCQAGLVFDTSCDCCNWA
Sequence of recombinant human CHIT1 (Q13231 22-466): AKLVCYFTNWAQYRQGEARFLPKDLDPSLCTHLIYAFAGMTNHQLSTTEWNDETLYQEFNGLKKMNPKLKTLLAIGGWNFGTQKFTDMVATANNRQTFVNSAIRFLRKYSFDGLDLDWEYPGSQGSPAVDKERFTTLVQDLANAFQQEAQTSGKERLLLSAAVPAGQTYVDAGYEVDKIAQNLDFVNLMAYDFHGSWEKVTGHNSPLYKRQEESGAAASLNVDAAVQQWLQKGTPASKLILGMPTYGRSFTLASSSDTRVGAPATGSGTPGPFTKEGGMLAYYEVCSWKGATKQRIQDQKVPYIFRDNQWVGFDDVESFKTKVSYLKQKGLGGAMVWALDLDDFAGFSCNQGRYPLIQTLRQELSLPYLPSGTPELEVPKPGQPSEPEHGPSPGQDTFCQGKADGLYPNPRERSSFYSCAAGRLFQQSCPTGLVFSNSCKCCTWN

In the case of `Nc1nnc(N2CCC(N3C[C@H](Cn4cc(Cl)cn4)OC[C@@H]3Cc3ccc(Cl)cc3)CC2)[nH]1` [Example 44, 5-(4-((2R,5S)-2-((4-chloro-1H-pyrazol-1-yl)methyl)-5-(4-chlorobenzyl)-morpholino)piperidin-1-yl)-4H-1,2,4-triazol-3-amine 2,2,2-trifluoroacetate], the results for the IC50 at recombinant human CHIT1, at hERG channel and at recombinant human AMCase were less than 100 nM, 1000 to 10000 nM and less than 100 nM, respectively.

Take `CS(=O)(=O)CCNC(=O)[C@H]1CN(C2CCN(c3nnc(N)[nH]3)CC2)[C@@H](Cc2ccc(Cl)cc2)CO1` [Example 45, (2R,5S)-4-(1-(5-amino-4H-1,2,4-triazol-3-yl)piperidin-4-yl)-5-(4-chlorobenzyl)-N-(2-(methylsulfonyl)ethyl)morpholine-2-carboxamide 2,2,2-trifluoroacetate]: the IC50 was less than 100 nM at recombinant human CHIT1, more than 100000 nM on hERG channel and less than 100 nM on recombinant human AMCase.

For `CNS(=O)(=O)CCNC(=O)[C@H]1CN(C2CCN(c3nnc(N)[nH]3)CC2)[C@@H](Cc2ccc(Cl)cc2)CO1` [Example 46, (2R,5S)-4-(1-(5-amino-4H-1,2,4-triazol-3-yl)piperidin-4-yl)-5-(4-chlorobenzyl)-N-(2-(N-methylsulfamoyl)ethyl)morpholine-2-carboxamide 2,2,2-trifluoroacetate], the IC50 at recombinant human CHIT1 is less than 100 nM; on hERG channel it was more than 100000 nM; at recombinant human AMCase, less than 100 nM.

As to `Nc1nnc(N2CCC(N3C[C@H](Cn4ccnc4)OC[C@@H]3Cc3ccc(Cl)cc3)CC2)[nH]1` [Example 47, 5-(4-((2R,5S)-2-((1H-imidazol-1-yl)methyl)-5-(4-chlorobenzyl)morpholino)-piperidin-1-yl)-4H-1,2,4-triazol-3-amine 2,2,2-trifluoroacetate], the IC50 at recombinant human CHIT1 is less than 100 nM; at hERG channel, 10000 to 25000 nM; on recombinant human AMCase it was less than 100 nM.

As for `CN(C)C(=O)OC[C@H]1CN(C2CCN(c3nnc(N)[nH]3)CC2)[C@@H](Cc2ccc(Cl)cc2)CO1` [Example 48, ((2R,5S)-4-(1-(5-amino-4H-1,2,4-triazol-3-yl)piperidin-4-yl)-5-(4-chlorobenzyl)morpholin-2-yl)methyl dimethylcarbamate 2,2,2-trifluoroacetate], the IC50 is less than 100 nM on recombinant human CHIT1, 25000 to 100000 nM at hERG channel and less than 100 nM on recombinant human AMCase.

Consider `Cc1coc([C@H]2CN(C3CCN(c4nnc(N)[nH]4)CC3)[C@@H](Cc3ccc(Cl)cc3)CO2)n1` [Example 49, 5-(4-((2R,5S)-5-(4-chlorobenzyl)-2-(4-methyloxazol-2-yl)morpholino)piperidin-1-yl)-4H-1,2,4-triazol-3-amine 2,2,2-trifluoroacetate], for which the IC50 on recombinant human CHIT1 was less than 100 nM; at hERG channel it was 10000 to 25000 nM; at recombinant human AMCase it was less than 100 nM.

For the compound `Cc1nc([C@H]2CN(C3CCN(c4nnc(N)[nH]4)CC3)[C@@H](Cc3ccc(Cl)cc3)CO2)oc1C` [Example 50, 5-(4-((2R,5S)-5-(4-chlorobenzyl)-2-(4,5-dimethyloxazol-2-yl)morpholino)piperidin-1-yl)-4H-1,2,4-triazol-3-amine 2,2,2-trifluoroacetate], the IC50 is less than 100 nM on recombinant human CHIT1, 1000 to 10000 nM on hERG channel and less than 100 nM on recombinant human AMCase.

For `CC1CN(C[C@H]2CN(C3CCN(c4nnc(N)[nH]4)CC3)[C@@H](Cc3ccc(Cl)cc3)CO2)C1` [Example 51, 5-(4-((2S,5S)-5-(4-chlorobenzyl)-2-((3-methylazetidin-1-yl)methyl)morpholino)-piperidin-1-yl)-4H-1,2,4-triazol-3-amine 2,2,2-trifluoroacetate], the IC50 at recombinant human CHIT1 was 100 to 1000 nM; at hERG channel, 25000 to 100000 nM; at recombinant human AMCase it was less than 100 nM.

For `Nc1nnc(N2CCC(N3C[C@H](CN4CCCCC4)OC[C@@H]3Cc3ccc(Cl)cc3)CC2)[nH]1` [Example 52, 5-(4-((2S,5S)-5-(4-chlorobenzyl)-2-(piperidin-1-ylmethyl)morpholino)piperidin-1-yl)-4H-1,2,4-triazol-3-amine 2,2,2-trifluoroacetate], the figures for the IC50 at recombinant human CHIT1, on hERG channel and at recombinant human AMCase were 100 to 1000 nM, 25000 to 100000 nM and less than 100 nM, respectively.

With `Nc1nnc(N2CCC(N3C[C@H](C(=O)N4CCC(F)(F)CC4)OC[C@@H]3Cc3ccc(Cl)cc3)CC2)[nH]1` [Example 53, ((2R,5S)-4-(1-(5-amino-4H-1,2,4-triazol-3-yl)piperidin-4-yl)-5-(4-chlorobenzyl)-morpholin-2-yl)(4,4-difluoropiperidin-1-yl)methanone 2,2,2-trifluoroacetate], the values for the IC50 on recombinant human CHIT1, at hERG channel and on recombinant human AMCase were 100 to 1000 nM, 25000 to 100000 nM and less than 100 nM, respectively.

As to `Nc1nnc(N2CCC(N3C[C@H](C(=O)N4CCC(F)(F)C4)OC[C@@H]3Cc3ccc(Cl)cc3)CC2)[nH]1` [Example 54, ((2R,5S)-4-(1-(5-amino-4H-1,2,4-triazol-3-yl)piperidin-4-yl)-5-(4-chlorobenzyl)-morpholin-2-yl)(3,3-difluoropyrrolidin-1-yl)methanone 2,2,2-trifluoroacetate], the IC50 on recombinant human CHIT1 was 100 to 1000 nM; at hERG channel, more than 100000 nM; at recombinant human AMCase, less than 100 nM.

For `Nc1nnc(N2CCC(N3C[C@H](N4CCOCC4)C[C@@H]3Cc3ccc(Cl)cc3)CC2)[nH]1` [Example 55, 5-(4-((2S,4R)-2-(4-chlorobenzyl)-4-morpholinopyrrolidin-1-yl)piperidin-1-yl)-4H-1,2,4-triazol-3-amine 2,2,2-trifluoroacetate], the IC50 on recombinant human CHIT1 is less than 100 nM; on hERG channel, 25000 to 100000 nM; at recombinant human AMCase, less than 100 nM.

For the compound `Nc1nnc(N2CCC(N3CC(F)(F)CC[C@@H]3Cc3ccc(Cl)cc3)CC2)[nH]1` [Example 57, (R)-5-(2-(4-chlorobenzyl)-5,5-difluoro-[1,4′-bipiperidin]-1′-yl)-4H-1,2,4-triazol-3-amine 2,2,2-trifluoroacetate], the IC50 at recombinant human CHIT1 was less than 100 nM; on hERG channel it was more than 100000 nM; on recombinant human AMCase, less than 100 nM.

With `Nc1nnc(N2CCC(N3C[C@H](N4CCOCC4)CC[C@@H]3Cc3ccc(Cl)cc3)CC2)[nH]1` [Example 58, 5-((2R,5R)-2-(4-chlorobenzyl)-5-morpholino-[1,4′-bipiperidin]-1′-yl)-4H-1,2,4-triazol-3-amine 2,2,2-trifluoroacetate], the IC50 at recombinant human CHIT1 was 100 to 1000 nM; on hERG channel it was 10000 to 25000 nM; on recombinant human AMCase, less than 100 nM.

For the compound `Nc1nnc(N2CCC(N3C[C@H](C(=O)N4CCCC4)OC[C@@H]3Cc3ccc(Cl)cc3)CC2)[nH]1` [Example 60, ((2R,5S)-4-(1-(5-amino-4H-1,2,4-triazol-3-yl)piperidin-4-yl)-5-(4-chlorobenzyl)-morpholin-2-yl)(pyrrolidin-1-yl)methanone 2,2,2-trifluoroacetate], the IC50 on recombinant human CHIT1 was 100 to 1000 nM; on hERG channel, more than 100000 nM; on recombinant human AMCase, less than 100 nM.

In the case of `CC1CN(C(=O)[C@H]2CN(C3CCN(c4nnc(N)[nH]4)CC3)[C@@H](Cc3ccc(Cl)cc3)CO2)C1` [Example 61, ((2R,5S)-4-(1-(5-amino-4H-1,2,4-triazol-3-yl)piperidin-4-yl)-5-(4-chlorobenzyl)-morpholin-2-yl)(3-methylazetidin-1-yl)methanone 2,2,2-trifluoroacetate], the IC50 is less than 100 nM on recombinant human CHIT1, more than 100000 nM on hERG channel and less than 100 nM on recombinant human AMCase.

On to `Nc1nnc(N2CCC(N3C[C@H](C(=O)N4CC(F)C4)OC[C@@H]3Cc3ccc(Cl)cc3)CC2)[nH]1` [Example 62, ((2R,5S)-4-(1-(5-amino-4H-1,2,4-triazol-3-yl)piperidin-4-yl)-5-(4-chlorobenzyl)-morpholin-2-yl)(3-fluoroazetidin-1-yl)methanone 2,2,2-trifluoroacetate], for which the IC50 at recombinant human CHIT1 was less than 100 nM; at hERG channel, more than 100000 nM; at recombinant human AMCase it was less than 100 nM.

For `Nc1nnc(N2CCC(N3C[C@H](C(=O)N4CCOCC4)OC[C@@H]3Cc3ccc(Cl)cc3)CC2)[nH]1` [Example 63, ((2R,5S)-4-(1-(5-amino-4H-1,2,4-triazol-3-yl)piperidin-4-yl)-5-(4-chlorobenzyl)-morpholin-2-yl)(morpholino)methanone 2,2,2-trifluoroacetate], the IC50 on recombinant human CHIT1 was 100 to 1000 nM; on hERG channel it was more than 100000 nM; on recombinant human AMCase, less than 100 nM.

Consider `CC(C)(O)[C@H]1CN(C2CCN(c3nnc(N)[nH]3)CC2)[C@@H](Cc2ccc(Br)cc2)CO1` [Example 64, 2-((2R,5S)-4-(1-(5-amino-4H-1,2,4-triazol-3-yl)piperidin-4-yl)-5-(4-bromobenzyl)-morpholin-2-yl)propan-2-ol 2,2,2-trifluoroacetate], for which the results for the half-inhibitory concentration (IC50) at recombinant human CHIT1, at hERG channel and at recombinant human AMCase were less than 100 nM, more than 100000 nM and less than 100 nM, respectively.

Consider `CC(C)NC(=O)[C@H]1CN(C2CCN(c3nnc(N)[nH]3)CC2)[C@@H](Cc2ccc(Cl)cc2)CO1` [Example 65, (2R,5S)-4-(1-(5-amino-4H-1,2,4-triazol-3-yl)piperidin-4-yl)-5-(4-chlorobenzyl)-N-isopropylmorpholine-2-carboxamide 2,2,2-trifluoroacetate], for which the IC50 on recombinant human CHIT1 was 100 to 1000 nM; at hERG channel, more than 100000 nM; at recombinant human AMCase, less than 100 nM.

As for `CC(C)(C)NC(=O)[C@H]1CN(C2CCN(c3nnc(N)[nH]3)CC2)[C@@H](Cc2ccc(Cl)cc2)CO1` [Example 66, (2R,5S)-4-(1-(5-amino-4H-1,2,4-triazol-3-yl)piperidin-4-yl)-N-(tert-butyl)-5-(4-chlorobenzyl)morpholine-2-carboxamide 2,2,2-trifluoroacetate], the results for the IC50 on recombinant human CHIT1, on hERG channel and at recombinant human AMCase were 100 to 1000 nM, more than 100000 nM and less than 100 nM, respectively.
